Measured values as given in patent US20240199618A1, “NOVEL N-ACYL-[3-SUBSTITUTED]-[8-SUBSTITUTED]-5,6-DIHYDRO-[1,2,4]TRIAZOLO[4,3-a]PYRAZINES AS SELECTIVE NK-3 RECEPTOR ANTAGONISTS, PHARMACEUTICAL COMPOSITION, METHODS FOR USE IN NK-3 RECEPTOR-MEDIATED DISORDERS” (Ogeda SA, priority 2013, published 2024).

How the values were obtained:
[1] = tested on: hot flashes in postmenopausal women; test: Phase 2a clinical trial, menopausal hot flashes; assay type: in vivo, human
Experimental: Clinical Evaluation of compound n^o 5 for the Treatment of Menopausal Hot Flashes Objectives: The study objective is to evaluate the effect of compound n^o 5 on the severity and frequency of hot flashes in postmenopausal women. Design and Setting: The Phase 2a clinical trial was conducted in 80 patients, divided over 2 treatment groups of 40 patients each. […] The Phase 2a trial was double blind and randomized. This Phase 2a trial was conducted on healthy menopausal women (40-65 y) experiencing at least 49 moderate or severe hot flashes or night sweats over a period of 7 consecutive days in the screening period (maximum of 4 weeks). The study was conducted on an ambulatory basis where patients were asked to visit the clinical site on the first day of dosing and at weeks 4, 8, 12 during the treatment period with a follow-up visit 2-3 weeks after conclusion of dosing. Hot flashes were to be reported daily in the morning and the evening using an electronic diary tool. These reported events were used to calculate the Hot Flash Frequency and the Hot Flash Score. The weekly number of hot flashes was calculated in two ways: cumulatively for all severity grades, and cumulatively but leaving out the number of mild hot flashes. Hot Flash Frequencies were calculated for weeks 4 and 12. The Hot Flash Score (HFS) is a composite score combining both frequency and severity. This score is an accepted method to assess the overall severity of the hot flash burden and is calculated weekly. The score is a general measure of the number and severity of all hot flashes occurred during a given time period. The Hot Flash Score (based on severity and frequency) is calculated as follows: • day-score=(number of mild hot flashes/day×1)+(number of moderate hot flashes/day×2)+(number of severe hot flashes/day×3) • The weekly hot flash score is calculated: […] Higher scores indicate worse symptoms.

[2] = tested on: plasma estradiol; test: Estradiol circulating level in female rats; assay type: in vivo, rat; settings: 10 mg/kg b.i.d. oral, 10 days, FIG. 3
Experimental: Effect of compounds of the invention on Estradiol circulating level in female rats The aim of this study was to evaluate the effect of compounds of the invention on plasma estradiol levels following oral administration at 10 mg/kg (b.i.d.) for a period of 10 days in female rats.
Briefly the experimental methods used for this study were as follows: Two groups of adult, female rats (Sprague-Dawley, ˜320 g) were treated in-phase with their individual estrous cycles. Thus, treatment was started in the proestrus phase (coincident with peak estradiol levels, as shown on Day 1 in FIG. 3) and rats were dosed twice daily (˜9 h30 and 17 h30) by oral administration either with a compound of the invention at 10 mg/kg or with the vehicle for the control group. Compounds of the invention were prepared in a dose formulation of pyrogen-free water with 0.5% methylcellulose. Estradiol levels were determined for all groups by ELISA performed on plasma samples derived from blood collections taken at 30 minutes before the daily, 9 h30 test article administration on all days presented in FIG. 3.

[3] = tested on: serum Total Testosterone, LH, FSH in women with PCOS; test: Phase 2a clinical trial, PolyCystic Ovary Syndrome (PCOS); assay type: in vivo, human
Experimental: Clinical Evaluation of Compound n^o 5 for the Treatment of PolyCystic Ovary Syndrome (PCOS)
Objectives: The study objectives are to evaluate the effect of compound n^o 5 on the serum levels of Total Testosterone (TT), Luteinizing Hormone (LH), Follicle Stimulating Hormone (FSH) and LH:FSH ratio after 12 weeks of treatment.
Design and Setting: The Phase 2a clinical trial was conducted in 48 patients, divided over 2 treatment groups of 24 patients each. One group received placebo while the other group received 180 mg of compound n^o 5 once daily (QD) for a period of 12 weeks. The Phase 2a trial was double blind and randomized. […] The study was conducted on an ambulatory basis where patients were asked to visit the clinical site on the first day of dosing and at weeks 3, 6, 9 and 12 during the treatment period with a follow-up visit 2-3 weeks after conclusion of dosing.
Blood draws for LH, FSH and TT were taken every visit between 2 and 8 hours after drug intake (baseline and week 3-6-12). At week 9 the blood samples were taken in the morning before drug intake (i.e. at trough PK concentrations for compound n^o 5). These blood draws were the basis for assessing the primary (TT) and secondary (LH, FSH, LH:FSH ratio) endpoints. The primary endpoint of Total Testosterone was measured according to GLP using an LC-MS/MS method.
PCOS is typically characterized by excessive ovarian androgen production, failure of ovulation, and slightly enlarged ovaries with numerous peripheral small follicles that appear as cysts. The disorder is commonly accompanied by infertility. Typically, the clinical features of PCOS are associated with hypersecretion of LH and androgens (TT) but with normal serum concentrations of FSH hormone. Laboratory examinations reveal elevated TT levels in about 50% of the patients, accompanied by an elevated LH:FSH ratio (>2) due to the imbalanced secretion of both hormones (a ratio of 1 is considered normal).

[4] = tested on: circulating levels of luteinizing hormone (LH); test: Castrated male rat model, circulating luteinizing hormone (LH); assay type: in vivo; settings: single oral dose less than or equal to 30 mg/kg, p<0.05
Experimental: Castrated Male Rat Model to Assess the Effect of Compound of Invention on Circulating Levels of Luteinizing Hormone (LH)
The effect of compounds of the invention to inhibit luteinizing hormone (LH) secretion is determined by the following biological studies.
In humans and rodents, castration is well-precedented to permit heightened, persistent GnRH signaling and consequent elevation of circulating LH. Thus, a castrated rat model is used to provide a broad index for measurement of LH inhibition as a marker of test compound inhibition of the GnRH signaling pathway.
Castrated adult male Sprague-Dawley (SD) rats (150-175 g,) were purchased from Janvier (St Berthevin, France). All animals were housed 2 per cage in a temperature-controlled room (22±2° C.) and 50±5% relative humidity with a 12 hour/12 hour light/dark cycles (lights off at […]). The animals were allowed 3 weeks of postoperative recovery prior to study. Animals were handled on a daily basis. Standard diet and tap water were provided ad libitum. Animal cage litters were changed once a week. On the study day, animals were acclimated to the procedure room for a period of one hour prior to the initiation of the experiment.
Compounds of the invention were formulated in 0.5% methyl cellulose.
After basal sampling (TO) a single dose of compounds of the invention or vehicle was administrated orally to rats. Blood samples were then collected at several time points post dosing (45, 90, 150, 300 and 420 minutes). Blood samples were obtained via tail vein bleed, drawn into EDTA-containing tubes and centrifuged immediately. Plasma samples were collected and stored in a −80° C. freezer until assayed. Serum LH levels were determined using radioimmunoassay kit from RIAZEN—Rat L H, Zentech (Liege, Belgium). Baseline was defined as the initial basal blood sample.

[5] = 90 mg BID, postmenopausal women
[6] = Baseline, 90 mg BID group, moderate and severe hot flashes

Cc1nsc(-c2nnc3n2CCN(C(=O)c2ccc(F)cc2)[C@@H]3C)n1 [Compound 5, (R)-(4-fluorophenyl)(8-methyl-3-(3-methyl-1,2,4-thiadiazol-5-yl)-5,6-dihydro-[1,2,4]triazolo[4,3-a]pyrazin-7(8H)-yl)methanone]
Frequency of hot flashes in comparison of placebo [1, 5]: significantly reduced | Score of hot flashes in comparison of placebo [1, 5]: significantly reduced | Hot Flash Score (mean) [1, 6]: 29.08 | Hot Flashes Frequency (mean) [1, 6]: 11.84 | Hot Flash Score (mean) ([1]; Week 4, 90 mg BID oral): 2.96 | Hot Flashes Frequency (mean) ([1]; Week 4, 90 mg BID oral): 1.35 | Hot Flash Score (mean) ([1]; Week 12, 90 mg BID oral): 1.70 | Hot Flashes Frequency (mean) ([1]; Week 12, 90 mg BID oral): 0.79 | estradiol levels [2]: significantly decreased | FSH secretion ([3]; 180 mg QD, women with PCOS): preserved | LH ([3]; 180 mg QD, women with PCOS): significant decrease | LH:FSH in comparison of placebo ([3]; 180 mg QD, women with PCOS): significantly reduced | TT in comparison of placebo ([3]; 180 mg QD, women with PCOS): significantly reduced | Total Testosterone (mean) ([3]; Baseline, 180 mg QD group): 2.16 nmol/L | Total Testosterone (mean) ([3]; Week 6, 180 mg QD oral): 1.41 nmol/L | Total Testosterone (mean) ([3]; Week 12, 180 mg QD oral): 1.39 nmol/L | circulating LH levels [4]: significantly suppressed
